Results taken from patent publication US20090274739A1, “METHODS AND COMPOSITIONS FOR TREATING NEOINTIMAL HYPERPLASIA” (THE TRUSTEES OF COLUMBIA UNIVERSITY IN THE CITY OF NEW YORK, priority 2006, published 2009).

Tests used:
murine VSMC migration = test: VSMC migration, modified Boyden chamber; type: cell-based, mouse; conditions: leptin 6 nM
Method: Migration of VSMCs: Migration was measured using a modified Boyden chamber as previously described (Grinspoon S, et al., J Clin Endocrinol Metab, 1996, 81(11):3861-3). The lower chambers contained PDGF (10 ng/mL), insulin (200 nmol/L), or 0.2% BSA (negative control) in DMEM. 2×10^5 cells were loaded into the top chamber. After 6 h, non-migrating cells were scraped from the upper surface of the filter, and the lower surface of the filter was stained with HEMA 3 Stain Set (Fisher Diagnostics, Middletown, Va.). The number of migrated VSMCs was determined by counting 4 fields at 200× magnification, of constant area per well. Values are expressed as the percentage of cells migrating in response to a chemo-attractant after subtracting the negative control. Experiments were performed thrice in triplicate wells.
FIG. 5 is a graph that depicts inhibition of migration of VSMCs toward insulin by rapamycin. […]
Primary VSMC were isolated from aortic explants of WT, ob/ob, or db/db mice (46). VSMC proliferation was determined using the Cell Titre Aqueous One Solution Proliferation Assay (Promega, Madison, Wis.). Migration to PDGF-BB was assessed in a modified Boyden chamber assay (47).

Akt phosphorylation = test: Immunoblot of Akt phosphorylation in VSMC; type: cell-based, mouse
Method: (§1) Western blot analysis: The cells were plated in a 100-mm culture dish in DMEM supplemented with 20% FBS for 24 h at 37° C., followed by serum starvation for 48 h. Cells were then treated with different reagents for 30 min. Cells were subsequently lysed on ice for 30 min in RIPA buffer [150 mM NaCl, 100 mM Tris (pH 8.0), 1% Triton X-100, 1% deoxycholic acid, 0.1% SDS, 5 mM EDTA, and 10 mM NaF] supplemented with 1 mM sodium vanadate, 2 mM leupeptin, 2 mM aprotinin, 1 mM phenylmethylsulfonyl fluoride (PMSF), 1 mM DTT, and 2 mM pepstatin A. After centrifugation at 14,000 rpm for 30 min, the supernatant was harvested as the total cellular protein extract, and stored at −70° C. The protein concentration was determined using Bio-Rad protein assay reagent (Richmond, Calif.). The total cellular protein extracts were separated by SDS-polyacrylamide gel electrophoresis (SDS-PAGE) and transferred to nitrocellulose membrane in 20 mM Tris-HCl (pH 8.0) containing 150 mM glycine and 20% (v/v) methanol.
(§2) Membranes were blocked with 5% nonfat dried milk in PBS containing 0.05% Tween 20 and incubated with antibodies against phospho-(Thr^202/Tyr^204) p42/p44^MAPK and p42/p44^MAPK, phospho-Akt([…]) and anti-Akt, p70^S6K, 4EBP-1. Blots were washed three times in PBS buffer, followed by incubation with the appropriate HRP-linked IgG. The specific proteins in the blots were visualized using an enhanced chemiluminescence reagent (NEN, Boston, Mass.).
(§3) VSMC were plated on 100-mm dishes, serum starved for 72 h in DMEM containing 0.1% FBS, and stimulated with 0.6 or 6 nM (10 or 100 ng/ml) leptin. Extracts were prepared by brief sonication in HKM buffer [40 mM HEPES-KOH (pH 7.6), 7.5 mM MgCl2, 0.5 mM DTT] or, in the case of Akt phosphorylation studies, by lysing cells on ice for 30 min in RIPA buffer. 70 μg of protein per sample were subjected to immunoblotting by standards protocols. Imaging and densitometry were performed on an Odyssey infrared system (Li-Cor, Lincoln, Neb.).

[1] = system: MAPK (p44/p42, ERK1/2) phosphorylation; test: Immunoblot of MAPK (ERK1/2, p44/p42) phosphorylation in VSMC; type: cell-based, mouse
Method: as §1, §2, §3

[2] = mouse, in vivo
Excerpt: Animal Models and Drug Treatments. Wild type C57BL/6J background mice and mice deficient for leptin (C57BL/6J-Lepob; ob/ob) or the leptin receptor (C57BL/6J-m+/+Lepdb; db/db) were purchased from Charles Jackson Laboratories, Maine. Mice were obtained at ages 6-8 weeks old and average weight 15 g. Animals were fed standard rodent chow and tap water ad libitum. Procedures and animal care were approved by the Institutional Animal Care and Use Committee. Mice were subjected to femoral artery wire injury or sham injury described below 24 hr prior to starting pharmacological treatments. Sirolimus was administered by intraperitoneal injection once per day for 14 days as a suspension in 0.2% sodium carboxymethyl cellulose and 0.25% polysorbate-80; duplicate experiments were accomplished with 0.5% DMSO. […] Plasma leptin levels were measured at baseline, 3, 6, and 10 hr after leptin injection using an ELISA assay (R&D). […]
For leptin measurements, plasma was obtained by drawing 100 μL of retro-orbital whole blood into a heparinized tube and removing cells by centrifugation at 20,000 m/s^2 for 5 min. Plasma leptin levels were measured at baseline, 3, 6, and 10 h after leptin injection in WT mice or at baseline in ob/ob and db/db mice using the mouse leptin TiterZyme EIA kit (Assay Designs, Ann Arbor, Mich.).

[3] = Example 2, leptin 100 ng/ml, decreasing thereafter at 45 min

Leptin: recombinant leptin; hormone derived from adipose tissue, encoded by the Ob gene
PDGF-induced migration of VSMC (murine VSMC migration; WT VSMC): enhanced
PDGF-induced migration of VSMC (murine VSMC migration; db/db VSMC): not
phosphorylation of Akt (on serine 473) (Akt phosphorylation; Example 1, leptin 10 ng/mL): stimulated the phosphorylation
time of maximum Akt phosphorylation (Akt phosphorylation; [3]): 10 min
Thr-308 phosphorylation of Akt (Akt phosphorylation; Example 5, leptin 6 nM): stimulated
phosphorylation of Ser-473 of Akt (Akt phosphorylation; Example 5, leptin 6 nM): stimulated the phosphorylation
phosphorylation of the p44 and p42 forms of MAPK ([1]; Example 1, leptin 10 ng/mL): stimulated the phosphorylation
time of maximum ERK1/2 phosphorylation [1, 3]: 10 min
phosphorylation of MAPK ([1]; Example 5, leptin 6 nM): stimulated
leptin level 3 h after injection relative to untreated WT mice [2]: ~20 times
leptin level 3 hr after injection relative to untreated WT mice [2]: 15 times
